According to US7223777B2, “Compounds for the management of aging-related and diabetic vascular complications, process for their preparation, therapeutic and cosmetic uses thereof” (Torrent Pharmaceuticals Ltd., priority 2001, dated 2007):

How the values were obtained:
[1] = biological target: T1, AGE-BSA (Bos taurus, UniProt P02769); experiment: In-vitro screening for AGE-breaking activity (AGE-BSA incubated with compound; ELISA / gel permeation chromatography); assay type: biochemical, bovine; details: 37° C., 24 hours
T1 construct: Bovine serum albumin (fraction V) (BSA); from tissue; host or cells: bovine serum (fraction V); own knowledge: fraction V is the albumin fraction of plasma/serum
Method: Fluorescence was used as the criteria to monitor the increased AGE formation.
160 mg/ml of protein, bovine serum albumin, BSA and 1.6M glucose sugar were dissolved in phosphate buffered saline, PBS. Sodium azide was added at 0.02% concentration as a preservative. The solution was filtered asceptically through a […] filter and kept for aging at 37° C. for 16 weeks. After 16 weeks the solution was dialyzed against PBS, aliquoted and stored at −20° C.
To determine the AGE breaking activity, 10 μg/ml of the 16 weeks AGE-BSA was incubated with different concentrations of the test compounds at 37° C. for 24 hours and AGE breaking activity of the test compounds by ELISA was determined.
• 1. Different concentrations of 16 weeks AGE-BSA were coated on a microtiter plate as standard. Each concentration is coated in triplicates. • 2. The test samples were coated on microtiter plate at a concentration of 5 ng. to 20 ng per well in triplicates. • 3. The plate was incubated at 37° C. for one hour. • 4. After incubation the plate was washed with PBST (PBS with 0.05% Tween 20). • 5. Blocking with 5% skimmed milk in PBS at 37° C. for one hour was done. • 6. The plate was washed with PBST. • 7. Primary antibody against AGE-BSA was added and the plate is incubated at 37° C. for one hour. • 8. The plate was washed with PBST. • 9. Secondary antibody anti rabbit HRPO (Horse-Radish Per Oxidase) conjugate was added and the plate is incubated at 37° C. for one hour. • 10. The plate was washed with PBST. • 11. Colour development with OPD (orthophenylenediamine dihydrochloride) and hydrogen peroxide was done. • 12. OD (optical density) at (450 nm reading –620 nm reading) was measured after incubation at 37° C. for 15 minutes with Microplate ELISA Reader.
The breaker activity of the compounds were determined by the following formula:
[formula] OD450-620Control=Absorbance of 20 ng AGE-BSA after incubation at 37° C. for 24 hours without test compound. OD450-620Test=Absorbance of 20 ng AGE-BSA after incubation at 37° C. for 24 hours with required concentration of test compound.
Gel Permeation Chromatography based method was used to determine AGE breaking activities of the compounds.
Separation by Gel Permeation Chromatography (GPC) depends on differences in the size, more precisely the hydrodynamic volume, of the proteins in a sample. […] The pores of a column particle are differentially accessible to smaller particles, depending on their size. This volume of the column is called (V1). The total accessible volume (Vt) is the sum of the volume outside the particles (V0) and the volume accessible inside the particles (V1): Vt=V0+Vi Therefore, in a typical Gel Permeation Chromatography (GPC) run, high molecular weight molecules elute at a lower retention time whereas lower molecular weight molecules are retained for longer time. For the purpose of quantification, the area under the curve for the respective molecule is recorded. The same principle has been applied in the in vitro screening of the molecules of instant invention. Highly cross-linked Advanced Glycosylated Endproducts (AGE) were prepared in vitro by incubating Bovine Serum Albumin (BSA) with glucose for a period of 16 weeks. […] The reduction in the area of AGE-BSA incubated in the presence of AGE breaker as compared to that of control AGE BSA (incubated in absence of AGE breaker) gives an estimate of the AGE breaker activity of the drug. In order to check the non-specific activity of the molecule, a similar experiment was repeated with BSA as well. Methodology:
A known concentration of 16-week AGE-BSA was incubated with and without a predetermined concentration of the drug at 37° C. for 24 hours in clean transparent glass test tubes. The solution without drug served as the control and the solution containing the drug was treated as the test sample.
Gel permeation chromatography was performed on equal volumes of control AGE-BSA preparation and solution of AGE-BSA treated with drug. […]

[2] = Free radical scavenging activity on ABTS radical cation; assay type: biochemical
Method: This method measures the relative ability of free radical scavenging substances to scavenge the ABTS.^+ i.e. 2,2-Azino-bis-(3-ethyl benzo thiazoline-6-sulfonate) radical cation as compared to a standard amount of standard or free radical scavengers antioxidants. Incubation of ABTS with Peroxidase (metmyoglobin) and hydrogen peroxide results in the production of radical cation ABTS.^+. This species is blue-green in colour and can be detected at 730 nm. Antioxidants or free radical scavengers in the added sample that causes suppression of the color to a degree that is proportional to their concentration.
Preparation of Buffer Solutions: • a. Phosphate Citrate Buffer (pH 5.0): 48.5 ml of 0.1M citric acid with sufficient 0.2M disodium hydrogen phosphate to produce 100 ml. • b. Phosphate Buffer Saline (PBS): Dissolve 40.0 g of NaCl, 1.0 g of KCl, 1.0 g of KH2PO4 and 3.05 g of Na2HPO4 in 1 liter milli-Q water. Dilute 200 ml of above solution to 1 liter with milli-Q water (pH 7.4–7.6).
Preparation of ABTS Stock Solution (2 mM): • 1 tablet (10 mg) was dissolved in phosphate citrate buffer (pH 5.0) to give a 2 mM solution.
Preparation of Horse Radish Peroxidase Working Solution: • 0.1 mg was dissolved in 10 ml of phosphate buffer saline, 1 ml of this solution was diluted to 100 ml with PBS.
Preparation of Hydrogen Peroxide (1.08 mM) Solution: • 12 μl of Hydrogen Peroxide (30% w/v) was diluted to 100 ml with PBS.
Preparation of Drug Solutions: • 0.1 mM of stock solution of the drug was prepared which was serially diluted in PBS to get 0.05 mM, 0.025 mM and 0.0125 mM solutions.
Preparation of ABTS Radical Stock Solution: • To 2 ml of ABTS stock solution, 1 ml of horseradish Peroxidase working solution was added. • As soon as 2 ml of Hydrogen peroxide solution was added to the above solution, blue-green colour of the ABTS radicals appeared. This solution was incubated at 30° C. for 30 min in order to ensure the completion reaction. Make up the volume to 10 ml with PBS.
Preparation of Control Solution: • 900 μl of ABTS radical stock solution were added to an eppendorf tube. To it were added 100 μl of PBS solution.
Preparation of Test Solution: • 900 μl of ABTS radical stock solutions were added to different eppendorf tubes. To it were added 100 μl of various concentrations of drug solution.
Measurement of Absorbance (O.D): • The absorbance of control and test samples was recorded immediately at 730 nm taking PBS as blank.
Calculation: • The percent antioxidant activity was calculated according to the formula: % Antioxidant activity=100−[O.D of test sample/O.D of control×100]

T1 sequence (P02769 25-607): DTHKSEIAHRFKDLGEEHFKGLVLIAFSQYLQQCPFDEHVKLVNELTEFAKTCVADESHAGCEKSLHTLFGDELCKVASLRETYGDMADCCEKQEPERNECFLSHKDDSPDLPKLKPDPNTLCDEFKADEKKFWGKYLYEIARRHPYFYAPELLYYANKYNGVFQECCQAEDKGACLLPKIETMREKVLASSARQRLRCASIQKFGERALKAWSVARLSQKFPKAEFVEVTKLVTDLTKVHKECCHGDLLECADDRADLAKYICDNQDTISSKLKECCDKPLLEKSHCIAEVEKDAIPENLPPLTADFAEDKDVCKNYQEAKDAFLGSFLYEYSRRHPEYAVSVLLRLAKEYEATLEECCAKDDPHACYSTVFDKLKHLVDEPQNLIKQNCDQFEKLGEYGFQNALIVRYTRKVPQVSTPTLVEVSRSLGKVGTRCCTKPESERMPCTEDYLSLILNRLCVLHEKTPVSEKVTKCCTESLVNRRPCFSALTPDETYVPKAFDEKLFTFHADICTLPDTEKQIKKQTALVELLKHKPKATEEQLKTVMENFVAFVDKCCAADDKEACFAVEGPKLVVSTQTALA

| Compound | % Breakage ([1]; 10 mM compound) | Relative Free Radical Scavenging Activity (%) on ABTS ([2]; 12.5 μM) | Relative Free Radical Scavenging Activity (%) on ABTS ([2]; 25.0 μM) | Relative Free Radical Scavenging Activity (%) on ABTS ([2]; 50.0 μM) | Relative Free Radical Scavenging Activity (%) on ABTS ([2]; 100.0 μM) | % Breakage ([1]; 1.0 mM compound) | % Breakage ([1]; 5 mM compound) |
| --- | --- | --- | --- | --- | --- | --- | --- |
| 1-(2-Cyclopropylamino-2-oxoethyl)-3-[(1-cyclohexyl-3-phenylmethyl)pyrazol-5-yl]pyridinium chloride [Compound 23] | 53.29% | – | – | – | – | – | – |
| 1-(2-Cyclopropylamino-2-oxoethyl)-3-[(3-(2-cyclohexylethyl)pyrazol-5-yl]pyridinium chloride [Compound 21] | 93.43% | – | – | – | – | – | – |
| 1-(2-Thien-2′-yl-2-oxoethyl)-3-[(1-cyclohexyl-3-phenoxymethyl)pyrazol-5-yl]pyridinium chloride [Compound 38] | – | 27.70% | 44.78% | 61.98% | 66.92% | – | – |
| Cc1cc(C)n(Cc2cc(-c3ccc[n+](CC(=O)NC4CC4)c3)[nH]n2)n1.[Br-] [Compound 7, 1-[2-(Cyclopropylamino)-2-oxoethyl]3-[3-{(3,5-dimethylpyrazol-1-yl)methyl}-pyrazol-5-yl]-pyridinium bromide] | – | – | – | – | – | 51.72% | – |
| Cc1cc(C)n(Cc2cc(-c3ccc[n+](CC(=O)c4cc([N+](=O)[O-])cs4)c3)[nH]n2)n1.[Br-] [Compound 8, 1-{2-(4-Nitro-2-thienyl)-2-oxoethyl}-3-[3{(3,5-dimethylpyrazol-1-yl)methyl}-pyrazol-5-yl]-pyridinium bromide] | – | 22.22% | 38.18% | 67.14% | 99.71% | – | 85.31% |
| Cc1ccc(C(=O)C[n+]2cccc(-c3cc(Cc4ccccc4)n[nH]3)c2)s1.[Cl-] [Compound 12, 1-(2-(5-Methyl-2-Thienyl)-2-oxoethyl)-3-[(3-phenylmethyl)pyrazol-5-yl]pyridinium chloride] | 89.23% | 22.34% | 40.97% | 71.47% | 84.62% | – | – |
| O=C(C[n+]1cccc(-c2cc(Cc3ccccc3)n[nH]2)c1)c1ccccc1.[Br-] [Compound 14, 1-(2-Phenyl-2-oxoethyl)-3-[(3-phenylmethyl)pyrazol-5-yl]-pyridinium bromide] | 58.14% | – | – | – | – | – | – |
| O=C(C[n+]1cccc(-c2cc(Cc3ccccc3)nn2-c2ccccc2)c1)NC1CC1.[Cl-] [Compound 15, 1-(2-Cyclopropylamino-2-oxoethyl) 3-[(1-phenyl-3-phenylmethyl)pyrazol-5-yl]-pyridinium chloride] | 80.03% | – | – | – | – | – | – |
| O=C(C[n+]1cccc(-c2cc(COc3ccccc3)n[nH]2)c1)N1CCC(Cc2ccccc2)CC1.[Br-] [Compound 16, 1-(2-(4-Benzyl-1-piperidinyl)-2-oxoethyl) 3-[(3-phenoxymethyl)pyrazol-5-yl]-pyridinium bromide] | 95.51% | – | – | – | – | – | – |
| Cc1ccc(C(=O)C[n+]2cccc(-c3cc(CCC4CCCCC4)n[nH]3)c2)s1.[Cl-] [Compound 20] | – | 6.15% | 9.06% | 34.31% | 57.75% | – | – |
| O=C(C[n+]1cccc(-c2cc(Cc3ccccc3)n[nH]2)c1)NC12CC3CC(CC(C3)C1)C2.[Cl-] [Compound 25, 1-{2-(1-Adamantylamino-2-oxoethyl)}-3-[(3-phenylmethyl)pyrazol-5-yl]pyridinium chloride] | – | – | – | – | – | – | 98.59% |
| Cc1cc(C)n(Cc2cc(-c3ccc[n+](CC(=O)c4cc([N+](=O)[O-])cs4)c3)n(C3CCCCC3)n2)n1.[Br-] [Compound 27, 1-(2-(4-nitro-2-thienyl)-2-oxoethyl)-3-[(1-cyclohexyl-3-(3,5-dimethylpyrazol-1-yl)-methyl)pyrazol-5-yl]pyridinium bromide] | 86.98% | 16.16% | 27.12% | 39.05% | 51.04% | – | – |
| O=C(C[n+]1cccc(-c2cc(COc3ccccc3)n[nH]2)c1)NC1CC1.[Cl-] [Compound 31, 1-(2-Cyclopropylamino-2-oxoethyl)-3-[(3-phenoxymethyl)pyrazol-5-yl]pyridinium chloride] | 45.72% | – | – | – | – | – | – |
| O=C(C[n+]1cccc(-c2cc(CCC3CCCCC3)nn2-c2ccccc2)c1)c1cccs1.[Br-] [Compound 37, 1-(2-Thien-2′-yl-2-oxoethyl)-3-[1-phenyl-3-(2-cyclohexylethyl)pyrazol-5-yl]pyridinium bromide] | 85.45% | 21.79% | 37.92% | 41.95% | 39.46% | – | – |
| Cl.c1ccc(OCc2cc(-c3cccnc3)[nH]n2)cc1 [Compound 40, 3-[(3-Phenoxymethyl)pyrazol-5-yl]pyridine hydrochloride] | 66.06% | – | – | – | – | – | – |
